The subject of assay [1] is HIO-derived enteroids. The experiment in a line: Enteroid swelling assay (VIP-induced, CFTR-mediated ion and water efflux). The conditions noted are these: for VIP-induced enteroid swelling: 10 nM VIP, 6 h, 10 nM PYY or 20 μM CFTR-172 added 24 h before imaging. Type of assay: cell-based, human. How it is done:
Enteroids were plated in 10 μL Matrigel on an 8-chamber glass bottom slide (Ibidi) and maintained as described above. 3-5 days post-plating, the slide was mounted on an inverted confocal microscope (Nikon) fitted with an incubation chamber set to 37° C. and 5% CO2. Media was changed to include 10 nM VIP (Tocris). In some experiments, the media was changed 24 hours prior to imaging to include 20 μM CFTR (inh)-172 (Millipore Sigma) or 10 nM PYY (Phoenix Pharmaceuticals). Images were acquired every 5 minutes at 4× magnification. After 6 hours, some HIOEs swelled to the point of bursting; therefore, Applicant used images acquired at time 0 and at 6 hours for quantification. The area of 10 representative enteroids per well was quantified using NIS Elements software at both time points. The outline of individual enteroids was traced manually and the area calculated by NIS Elements. Fold change at 6 hours over baseline was reported. Data include a minimum of three independent experiments per condition.

Assay [2] relates to HIO-derived enteroids. The experiment in a line: Intracellular pH assay (pHrodo, flow cytometry) in enteroids. The class given is cell-based, human. How it is done: (§1) Enteroids were differentiated for 5-7 days in the presence of vehicle (water), 10 nM VIP (Tocris) or 10 nM PYY (Phoenix Pharmaceuticals) and 10 nM VIP. On the final day, enteroids were removed from Matrigel and enzymatically dissociated into single-cell suspension using 0.25% Trypsin-EDTA. Cell suspensions were counted and equal cell numbers of dissociated HIOEs were incubated in pHrodo Green AM Intracellular pH indicator (ThermoFisher Scientific) according to manufacturer's directions for 30 minutes at 37 C., washed with 1X PBS, and analyzed by flow cytometry.
(§2) After mechanical and enzymatic dissociation, tissues were filtered through a 40 μm cell strainer to obtain a single-cell suspension. In all experiments, samples were labeled with either CDH1-mRuby2 or Anti-EpCam-APC (BD Biosciences) to distinguish epithelial cells and incubated with SYTOX Blue dead cell stain (Life Technologies) or 7-AAD (BD Pharmingen). Forward scatter and side scatter were used to discriminate doublets and cellular debris. A minimum of 50,000 events per sample was recorded using an LSR Fortessa flow cytometer (BD Biosciences) and data was analyzed using FACSDiva software (BD Biosciences).
(In general: Flow cytometry measures light scatter and fluorescence of single cells or particles in a stream.)

The subject of another assay is SLC9A3 (NHE3) expression. Briefly: qPCR of SLC9A3 (NHE3) expression in enteroids. Type of assay: cell-based, human. How it is done: RNA was extracted using Nucleospin RNA extraction kit (Macharey-Nagel) and reverse transcribed into cDNA using Superscript VILO (Invitrogen) according to manufacturer's instruction. qPCR primers were designed using NCBI PrimerBlast. Primer sequences are listed in the table below. qPCR was performed using Quantitect SYBR® Green PCR kit (QIAGEN) and a QuantStudio 3 Flex Real-Time PCR System (Applied Biosystems). Relative expression was determined using the […] method and normalizing to PPIA (cyclophilin A). Samples from at least three independent passages were used for quantification.
as §1
A general note: Quantitative PCR measures a nucleic acid by following its amplification.

The next assay deals with mouse jejunum. Briefly: Ussing chamber electrophysiology, peptides/chemicals added ex vivo, mouse jejunum. The class given is cell-based. The conditions noted are these: for initial Isc response to luminal glucose: then 25 mM D-glucose. How it is done:
(§3) Electrophysiological experiments were conducted as described^28 with minor modifications. Mouse jejunum and transplanted HIOs were dissected and immediately placed in ice-cold Krebs-Ringer solution. Tissues were opened to create a flat epithelial surface. Because seromuscular stripping is associated with release of cyclooxygenases and prostaglandins^28, and prostaglandins can stimulate L-cells to release GLP1, GLP2 and PYY^36, Applicant performed the Ussing chamber experiments in intestinal tissue with an intact muscular layer. Tissues were mounted into sliders (0.031 cm^2 area slider, P2307, Physiological Instruments) and placed in an Ussing chamber with reservoirs containing 5 mL buffer (115 mM NaCl, 1.2 mM CaCl2, 1.2 mM MgCl2, 25 mM NaHCO3, 2.4 mM K2HPO4 and 0.4 mM KH2PO4). The mucosal and serosal tissue surfaces were bathed in the same solution, with the exception of 10 mM glucose in the serosal buffer and 10 mM mannitol in the luminal buffer. Mucosal and serosal reservoir solutions were gassed with 95% O2 and 5% CO2 to pH 7.4 and maintained at 37° C. by a circulating water bath behind the reservoir chambers. Electrophysiology parameters were recorded as previously described^37. Tissue was allowed to equilibrate to a basal steady-state for a minimum of 30 minutes before the addition of chemicals or peptides. 10 nM tetrodotoxin (Tocris) was added to the serosal buffer bathing mouse intestine to inhibit voltage-gated neuronal firing and allowed to incubate for a minimum of 10 minutes before basal Isc recording. D-glucose and Gly-Sar were added to the luminal side of the chamber once the VIP-induced Isc had stabilized at a maximum value.

Assay [3] has as its system human small intestinal tissue (transplanted HIOs). The experiment in a line: Ussing chamber electrophysiology, peptides/chemicals added ex vivo, transplanted HIO tissue. The class given is cell-based. The conditions noted are these: for initial Isc response to luminal glucose: then 25 mM D-glucose. The protocol: (§4) 28-35 days after spheroid generation, HIOs were removed from Matrigel and transplanted under the kidney capsule of immune deficient NOD.Cg-Prkdc^scidI12rg^tmIWjl/SzJ (NSG) mice as previously described^16. NSG mice were maintained on Bactrim chow for a minimum of 2 weeks prior to transplantation and thereafter for the duration of the experiment (8-14 weeks).
as §3

The test system of assay [4] is VillinCre;Neurog3flox/flox (EEC-deficient) mice. Briefly: PYY rescue of EEC-deficient mice (daily i.p. injection), with ex vivo analysis of jejunum. Type of assay: in vivo, mouse. How it is done:
as §3, §2
VillinCre;Neurog3^flox/flox mice^4 and their littermates were weighed, genotyped and visually examined for liquid feces daily beginning at postnatal day 10. Applicant established a diarrhea score, with 3 representing wet, yellow feces that smeared the perianal fur, and 0 representing normal, dry, brown, well-defined pellets. Mutant mice which suffered from diarrhea score 3 were included in the rescue experiment. 10 μg PYY (Phoenix Pharmaceuticals) was diluted in water and added to 20 μl DPP4 inhibitor (Millipore) to a final volume of 100 μl per mouse. Mice were injected intraperitoneally with this cocktail within 2 hours of the onset of the dark cycle (7 pm) daily until analysis at postnatal day 28-35. Mice were given access to solid chow on the floor of the cage beginning at postnatal day 10 and weaned at postnatal day 21.

Assay [5] concerns EEC-deficient HIOs transplanted in NSG mice. The experiment in a line: PYY treatment of NSG mice hosting EEC-deficient HIOs, Ussing chamber analysis of HIO tissue. Type of assay: in vivo, human. The protocol:
as §4
Electrophysiological experiments were conducted as described^28 with minor modifications. Mouse jejunum and transplanted HIOs were dissected and immediately placed in ice-cold Krebs-Ringer solution. Tissues were opened to create a flat epithelial surface. Because seromuscular stripping is associated with release of cyclooxygenases and prostaglandins^28, and prostaglandins can stimulate L-cells to release GLP1, GLP2 and PYY^36, Applicant performed the Ussing chamber experiments in intestinal tissue with an intact muscular layer. […] Electrophysiology parameters were recorded as previously described^37. […]
NSG mice hosting HIOs were treated with 25 μg PYY (Phoenix Pharmaceuticals) diluted in water to 100 μL by intraperitoneal injection. Mice were treated daily for a minimum of 10 days after HIOs had been maturing for 8 weeks, then dissected and analyzed.

Ends that are not written are not given here.

For “VIP: vasoactive intestinal peptide (Tocris), ENS-derived peptide signalling via VIPR1 to raise cAMP (HSDAVFTDNYTRLRKQMAVKKYLNSILN-NH2; ends and bridges not checked; UniProt P01282 125-152, looked up)”, the “ion and water transport as measured by organoid swelling” value with HIO-derived enteroids [1] (10 nM VIP added to enteroids) was “induced ion and water transport”. Besides, the “intracellular pH” value in the assay on HIO-derived enteroids [2] (EEC-deficient enteroids differentiated with 10 nM VIP for 5-7 days) is “developed an H^+ imbalance with an acidic cytoplasm”. Moreover, the SLC9A3 expression result with SLC9A3 (NHE3) expression (EEC-deficient enteroids, 5-7 days of exposure to VIP) is “reduced”; with SLC9A3 (NHE3) expression (wild type enteroids, 5-7 days of exposure to VIP), “reduced”.

In the case of `NC(=O)NCc1ccc(CNC(=O)[C@@H](CCCN=C(N)N)NC(=O)C(c2ccccc2)c2ccccc2)cc1` [BIB03304, N-[(1R)-1-[[[[4-[[(Amirtocarbortyl)amino]methyl]phenyl]methyl]amino]carbonyl]-4-[(aminoiminomethyl)amino]butyl]-α-phenyl-benzeneacetamide ditrifluoroacetate], the “initial Isc response to luminal glucose” value is on record as “caused an abnormal initial response to glucose that mimicked EEC-deficient tissues” in the assay on mouse jejunum (wild-type mouse tissue treated with VIP, NPY1R antagonist BIB03304) and “caused an abnormal initial response to glucose that mimicked EEC-deficient tissues” in assay [3] (wild-type HIO tissue treated with VIP, NPY1R antagonist BIB03304). Moreover, the “response (ΔIsc) to VIP” value is listed as “elevated response to VIP compared to untreated wild-type” in the assay on mouse jejunum (wild-type mouse tissue, 10 nM VIP, PYY receptor inhibited with BIB03304) and “elevated response to VIP compared to untreated wild-type” in assay [3] (wild-type human tissue, 10 nM VIP, PYY receptor inhibited with BIB03304). Also, the “basal Isc” value was “reproducibly increased the basal Isc” in the assay on mouse jejunum (wild-type mouse tissue, 300 nM BIB03304 added) and “reproducibly increased the basal Isc” in assay [3] (wild-type human tissue, 300 nM BIB03304 added). Further, the “Isc response to luminal dipeptide Gly-Sar” value in the assay on mouse jejunum (wild-type mouse tissue, 10 minutes pre-treatment with 300 nM BIB03304) is “did not alter the Isc response to Gly-Sar”; in assay [3] (wild-type human tissue, 10 minutes pre-treatment with 300 nM BIB03304) it was “did not alter the Isc response to Gly-Sar”.

Turning to `O=C(O)c1ccc(/C=C2\SC(=S)N(c3cccc(C(F)(F)F)c3)C2=O)cc1` [CFTR-172], the VIP-induced enteroid swelling entry in the assay on HIO-derived enteroids [1] (EEC-deficient enteroids) and with HIO-derived enteroids [1] (wild type enteroids) was “blocked” in each case. Moreover, the “electrogenic response to VIP” value is given as “blocked” in the assay on mouse jejunum (wild type and mutant jejunum pre-treated with 20 μM CFTR-172); “blocked” in assay [3] (wild-type and EEC-deficient human tissue, 20 μM CFTR-172).

In the case of “PYY: Peptide YY, PYY(1-36) from Phoenix Pharmaceuticals; EEC-derived gut peptide acting on NPY1R; co-injected with DPP4 inhibitor in mice”, the VIP-induced enteroid swelling result in the assay on HIO-derived enteroids [1] (EEC-deficient enteroids) and in the assay with HIO-derived enteroids [1] (wild type enteroids) was “significant inhibition of VIP-induced swelling” in each case. For the same molecule, the “basal Isc” value is recorded as “lowered the basal Isc” in the assay with mouse jejunum (EEC-deficient (mutant) mouse tissue, 10 nM PYY added) and “lowered the basal Isc” in assay [3] (EEC-deficient (mutant) human tissue, 10 nM PYY added). Further, the “initial Isc response to luminal glucose” value with mouse jejunum (EEC-deficient mouse tissue treated with VIP, pre-treatment with 10 nM PYY) is listed as “returned to wild type levels”; in assay [3] (EEC-deficient HIO tissue treated with VIP, pre-treatment with 10 nM PYY), “returned to wild type levels”. Besides, in the assay on mouse jejunum (EEC-deficient mouse tissue, 10 minutes pre-treatment with 10 nM PYY, VIP present), the “Isc response to luminal dipeptide Gly-Sar” value is “did not alter the Isc response to Gly-Sar”. Further, the “magnitude of response (ΔIsc) to VIP” value with mouse jejunum (EEC-deficient mutant mice, 10 nM VIP, exogenous PYY added) is “reduced the magnitude of response (ΔIsc) to VIP”; in assay [3] (EEC-deficient mutant HIOs, 10 nM VIP, exogenous PYY added), “reduced the magnitude of response (ΔIsc) to VIP”. Also, the “intracellular pH” value with HIO-derived enteroids [2] (EEC-deficient enteroids, 10 nM VIP with concurrent 10 nM PYY for 5-7 days) is on record as “normalized the pH in EEC-deficient enteroids”. For the same molecule, the SLC9A3 expression entry with SLC9A3 (NHE3) expression (EEC-deficient enteroids, PYY concurrently with VIP, 5-7 days) was “restored SLC9A3 expression to not significantly different from untreated”. Also, the “survival of EEC-deficient (mutant) mice” value in assay [4] (10 μg PYY(1-36) i.p. once daily from P10, co-injected with DPP4 inhibitor) was “up to 88%”. In addition, the “Isc response to luminal Gly-Sar” value in assay [4] (EEC-deficient mice, long-term PYY treatment, compared to untreated mutant) is listed as “improved Isc response to luminal Gly-Sar”; in assay [5] (EEC-deficient transplanted HIOs, host animals treated long-term with PYY, compared to untreated mutant), “improved Isc response to luminal Gly-Sar”. The “response to luminal glucose” value in assay [4] (EEC-deficient mouse intestine after in vivo PYY treatment) was “restores a normal glucose response”; in assay [5] (EEC-deficient HIOs, host animals injected with 25 μg PYY i.p. daily for 10 days), “restores a normal glucose response”. Also, in assay [4] (EEC-deficient vs EEC-rich regions of mosaic jejunum after PYY treatment), the “MFI of pHrodo intensity (intracellular pH, proton transport)” value is “normalized”. The “electrogenic response to VIP” value in assay [4] (jejunum of mutant mice treated with PYY in vivo) is given as “restored to wild type levels”. Also, the “basal (resting) Isc of jejunum” value in assay [4] (mutant jejunum in Ussing chamber after in vivo injections of PYY) is listed as “significantly decreased”. For the same molecule, the “diarrhea score (average)” value in assay [4] (within 48 hours of PYY treatment, score 3 = watery diarrhea, 0 = well-defined pellets, 10 μg PYY i.p. daily with DPP4 inhibitor) is recorded as 1.

For the origin of these results see patent US20220119772A1, “COMPOSITIONS AND METHODS FOR TREATMENT OF A MALABSORPTIVE DISORDER” (CHILDREN'S HOSPITAL MEDICAL CENTER, priority 2019, published 2022).
